Measurements reported in patent US4435583A, “2-Halo-substituted monic acid A useful as antibacterial compounds” (Beecham Group p.l.c., priority 1981, dated 1984).
Converted amounts (≈) assume the structure as drawn.

How the values were obtained:
Assay type in all cases: cell-based
M. suipneumoniae NB12 = assay: In vitro anti-mycoplasmal MIC; conditions: Friis broth, 0.9% agarose, 6 days, 37° C.
M. suipneumoniae JF435 = assay: In vitro anti-mycoplasmal MIC; conditions: Friis broth, 0.9% agarose, 6 days, 37° C.
M. suipneumoniae Str.11 = assay: In vitro anti-mycoplasmal MIC; conditions: Friis broth, 0.9% agarose, 6 days, 37° C.
M. suipneumoniae MS16 = assay: In vitro anti-mycoplasmal MIC; conditions: Mesomycoplasma hyopneumoniae, MS16, 144 h, Friis broth, 0.9% agarose, 6 days, 37° C.
[1] = system: M. suipneumoniae PW/C/210; assay: In vitro anti-mycoplasmal MIC; conditions: Mesomycoplasma hyopneumoniae, 144 h, Friis broth, 0.9% agarose, 6 days, 37° C.
M. suipneumoniae UCD 1 = assay: In vitro anti-mycoplasmal MIC; conditions: Friis broth, 0.9% agarose, 6 days, 37° C.
M. suipneumoniae TAM 6N = assay: In vitro anti-mycoplasmal MIC; conditions: Friis broth, 0.9% agarose, 6 days, 37° C.
[2] = system: M. suipneumoniae NCTC 10110; assay: In vitro anti-mycoplasmal MIC; conditions: Friis broth, 0.9% agarose, 6 days, 37° C.
M. hyorhinis ATCC 25021 = assay: In vitro anti-mycoplasmal MIC; conditions: Mesomycoplasma hyorhinis, ATCC25021, 144 h, Friis broth, 0.9% agarose, 6 days, 37° C.
[3] = system: M. hyosynoviae ATCC 25591; assay: In vitro anti-mycoplasmal MIC; conditions: 144 h, Friis broth, 0.9% agarose, 6 days, 37° C.
M. bovis NCTC 10131 = assay: microbe, parasite or virus in culture; conditions: Mycobacterium tuberculosis variant bovis, NCTC10131, 144 h
[4] = system: M. bovigenitalium ATCC 14173; assay: In vitro anti-mycoplasmal MIC; conditions: 144 h, Friis broth, 0.9% agarose, 6 days, 37° C.
M. dispar NCTC 10125 = assay: In vitro anti-mycoplasmal MIC; conditions: 144 h, Friis broth, 0.9% agarose, 6 days, 37° C.
M. pneumoniae ATCC 15492 = assay: In vitro anti-mycoplasmal MIC; conditions: Mycoplasmoides pneumoniae, ATCC15492, 144 h, Friis broth, 0.9% agarose, 6 days, 37° C., read-out: MIC
Bord. bronchiseptica B08 = assay: MIC against veterinary bacteria; conditions: Bordetella bronchiseptica, B08, 18 h, Diagnostic Sensitivity Test Agar, 37° C., read-out: MIC
Experimental: (§1) The values were determined using a two fold serial dilutions in Diagnostic Sensitivity Test Agar with an inoculum of 10^4 organisms and incubation for 18 hours at 37° C.

[5] = system: Erysipelothrix rhusiopathiae NCTC 8163; assay: MIC against veterinary bacteria; conditions: NCTC8163, Diagnostic Sensitivity Test Agar, 18 hours, 37° C., read-out: MIC
Experimental: as §1

Staph. aureus 152 = assay: MIC against veterinary bacteria; conditions: Diagnostic Sensitivity Test Agar, 18 hours, 37° C.
Experimental: as §1

Strep. dysgalactiae SPD1 = assay: MIC against veterinary bacteria; conditions: Diagnostic Sensitivity Test Agar, 18 hours, 37° C.
Experimental: as §1

Strep. uberis SPU1 = assay: MIC against veterinary bacteria; conditions: Strep. uberis SPU1; Diagnostic Sensitivity Test Agar; 18 hours, 37° C.
Experimental: as §1

Question: How did the MIC (M. suipneumoniae NB12) turn out when `CCOC(=O)C(F)=C(C)CC1OCC(CC2OC2C(C)C(C)O)C(O)C1O` [Example 1, Ethyl-4-[5S-(2S,3S-epoxy-5S-hydroxy-4S-methylhexyl)-3R, 4R-dihydroxytetrahydropyran-2S-yl]-2-fluoro-3-methylbut-2(Z)-enoate] was run?
Answer: The MIC was 0.5 µg/mL (≈ 1.28 µM).

Question: What about the MIC (M. suipneumoniae JF435) of the same compound?
Answer: The MIC was 0.5 µg/mL (≈ 1.28 µM).

Question: What about the MIC (M. suipneumoniae Str.11) of the same compound?
Answer: Its MIC is 0.5 µg/mL (≈ 1.28 µM).

Question: And the MIC (M. suipneumoniae MS16)?
Answer: Its MIC is 0.25 µg/mL (≈ 0.64 µM).

Question: What about the MIC [1] of the same compound?
Answer: Its MIC is 0.25 µg/mL (≈ 0.64 µM).

Question: And the MIC (M. suipneumoniae UCD 1)?
Answer: The MIC was 0.5 µg/mL (≈ 1.28 µM).

Question: What about the MIC (M. suipneumoniae TAM 6N) of the same compound?
Answer: The MIC was 0.5 µg/mL (≈ 1.28 µM).

Question: What about the MIC [2] of the same compound?
Answer: The MIC was 0.5 µg/mL (≈ 1.28 µM).

Question: And the MIC (M. hyorhinis ATCC 25021)?
Answer: Its MIC is 0.25 µg/mL (≈ 0.64 µM).

Question: And the MIC [3]?
Answer: Its MIC is 0.25 µg/mL (≈ 0.64 µM).

Question: What about the MIC (M. bovis NCTC 10131) of the same compound?
Answer: Its MIC is 0.025 µg/mL (≈ 0.064 µM).

Question: And the MIC [4]?
Answer: Its MIC is 0.025 µg/mL (≈ 0.064 µM).

Question: And the MIC (M. dispar NCTC 10125)?
Answer: Its MIC is 0.1 µg/mL (≈ 0.256 µM).

Question: What about the MIC (M. pneumoniae ATCC 15492) of the same compound?
Answer: The MIC was 5 µg/mL (≈ 12.8 µM).

Question: And the MIC (Bord. bronchiseptica B08)?
Answer: The MIC was 80 µg/mL (≈ 205 µM).

Question: What about the MIC [5] of the same compound?
Answer: Its MIC is 80 µg/mL (≈ 205 µM).

Question: And the MIC (Staph. aureus 152)?
Answer: Its MIC is 0.63 µg/mL (≈ 1.61 µM).

Question: And the MIC (Strep. dysgalactiae SPD1)?
Answer: The MIC was 1.3 µg/mL (≈ 3.33 µM).

Question: What about the MIC (Strep. uberis SPU1) of the same compound?
Answer: Its MIC is 0.63 µg/mL (≈ 1.61 µM).
